Measurements: ChEMBL document CHEMBL1201862, “PubChem BioAssay data set” (2004)
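Test compounds were applied to cells in 96-well plates for 48 hours at 5 doses. At the GI50, growth is halved.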 The source made the active and inactive calls. Rule as the data show it: active = GI50 up to about 1.1 µM and inactive = higher.

Legend:
Assay in all cases: growth of human tumour cells (NCI), 48 h
NCI-H522 = system: NCI-H522
OVCAR-3 = system: OVCAR-3
ACHN = system: ACHN
786-0 = system: 786-0
SK-OV-3 = system: SK-OV-3
SF-295 = system: SF-295
HL-60 = system: HL-60
NCI-H226 = system: NCI-H226
IGROV-1 = system: IGROV-1
NCI/ADR-RES = system: NCI/ADR-RES
SW-620 = system: SW-620
SK-MEL-2 = system: SK-MEL-2
TK-10 = system: TK-10
MDA-MB-435 = system: MDA-MB-435
SF-268 = system: SF-268
SF-539 = system: SF-539
KM12 = system: KM12
MDA-MB-231 = system: MDA-MB-231
SK-MEL-5 = system: SK-MEL-5
HCT-15 = system: HCT-15
U-251 = system: U-251
HOP-62 = system: HOP-62
Hs-578T = system: Hs-578T
UACC-257 = system: UACC-257
COLO 205 = system: COLO 205
OVCAR-5 = system: OVCAR-5
MOLT-4 = system: MOLT-4
A549 = system: A549
SN12C = system: SN12C
LOX IMVI = system: LOX IMVI
MDA-N = system: MDA-N
SNB-19 = system: SNB-19
SR = system: SR
HT-29 = system: HT-29
UACC-62 = system: UACC-62
HCT-116 = system: HCT-116
OVCAR-4 = system: OVCAR-4
RPMI-8226 = system: RPMI-8226
EKVX = system: EKVX
A498 = system: A498
DU-145 = system: DU-145
SK-MEL-28 = system: SK-MEL-28
SNB-75 = system: SNB-75
NCI-H23 = system: NCI-H23
CAKI-1 = system: CAKI-1
HCC 2998 = system: HCC 2998
BT-549 = system: BT-549
MCF7 = system: MCF7
M14 = system: M14
CCRF-CEM = system: CCRF-CEM
NCI-H460 = system: NCI-H460
PC-3 = system: PC-3
OVCAR-8 = system: OVCAR-8
UO-31 = system: UO-31
T47D = system: T47D
K562 = system: K562
RXF 393 = system: RXF 393
Malme-3M = system: Malme-3M

SMILES: CC1=CC[C@@H]2[C@@H](CC[C@@]2(C)O)C(C)(C)[C@H]1CC[C@@H]1[C@@]2(C)CCC(=O)C(C)(C)O[C@@H]2CC[C@]1(C)O
- GI50 (NCI-H522): 18.5 µM (inactive)
- GI50 (OVCAR-3): 37.7 µM (inactive)
- GI50 (ACHN): 19.5 µM (inactive)
- GI50 (786-0): 24.7 µM (inactive)
- GI50 (SK-OV-3): 74.3 µM (inactive)
- GI50 (SF-295): 0.762 µM (active)
- GI50 (HL-60): 16.9 µM (inactive)
- GI50 (NCI-H226): 22.5 µM (inactive)
- GI50 (IGROV-1): 28.9 µM (inactive)
- GI50 (NCI/ADR-RES): 21.9 µM (inactive)
- GI50 (SW-620): 32.7 µM (inactive)
- GI50 (SK-MEL-2): 36.7 µM (inactive)
- GI50 (TK-10): 83.4 µM (inactive)
- GI50 (MDA-MB-435): 30.7 µM (inactive)
- GI50 (SF-268): 29.9 µM (inactive)
- GI50 (SF-539): 17.3 µM (inactive)
- GI50 (KM12): 15.2 µM (inactive)
- GI50 (MDA-MB-231): 45.6 µM (inactive)
- GI50 (SK-MEL-5): 17.2 µM (inactive)
- GI50 (HCT-15): 14.9 µM
- GI50 (U-251): 31.9 µM (inactive)
- GI50 (HOP-62): 32.9 µM (inactive)
- GI50 (Hs-578T): 22.8 µM (inactive)
- GI50 (UACC-257): 30.3 µM (inactive)
- GI50 (COLO 205): 25.6 µM (inactive)
- GI50 (OVCAR-5): 71 µM (inactive)
- GI50 (MOLT-4): 20.7 µM (inactive)
- GI50 (A549): 24.7 µM (inactive)
- GI50 (SN12C): 22.4 µM (inactive)
- GI50 (LOX IMVI): 19.1 µM (inactive)
- GI50 (MDA-N): 25 µM (inactive)
- GI50 (SNB-19): 26.9 µM (inactive)
- GI50 (SR): 19 µM (inactive)
- GI50 (HT-29): > 10 µM (inactive)
- GI50 (UACC-62): 16.1 µM (inactive)
- GI50 (HCT-116): 19.9 µM (inactive)
- GI50 (OVCAR-4): 39.1 µM (inactive)
- GI50 (RPMI-8226): 19.7 µM (inactive)
- GI50 (EKVX): 42.1 µM (inactive)
- GI50 (A498): 31 µM (inactive)
- GI50 (DU-145): 42.9 µM (inactive)
- GI50 (SK-MEL-28): 31.2 µM (inactive)
- GI50 (SNB-75): 65.6 µM (inactive)
- GI50 (NCI-H23): 34.3 µM (inactive)
- GI50 (CAKI-1): 36.1 µM (inactive)
- GI50 (HCC 2998): 18.7 µM (inactive)
- GI50 (BT-549): 19 µM (inactive)
- GI50 (MCF7): 37.3 µM (inactive)
- GI50 (M14): 25.3 µM (inactive)
- GI50 (CCRF-CEM): 23.3 µM (inactive)
- GI50 (NCI-H460): 17.7 µM (inactive)
- GI50 (PC-3): 29.4 µM (inactive)
- GI50 (OVCAR-8): 24.8 µM (inactive)
- GI50 (UO-31): 22.5 µM (inactive)
- GI50 (T47D): 43.5 µM (inactive)

SMILES: FC1(F)ON2CCc3ccccc3C2[C@H]1c1ccccc1 (stereo partly drawn)
- GI50 (NCI-H522): > 10 µM (inactive)
- GI50 (OVCAR-3): 21 µM (inactive)
- GI50 (ACHN): > 10 µM (inactive)
- GI50 (786-0): 26.4 µM (inactive)
- GI50 (SK-OV-3): > 10 µM (inactive)
- GI50 (SF-295): > 10 µM (inactive)
- GI50 (HL-60): > 10 µM (inactive)
- GI50 (NCI-H226): 35.8 µM (inactive)
- GI50 (IGROV-1): > 10 µM (inactive)
- GI50 (NCI/ADR-RES): 92.9 µM (inactive)
- GI50 (SW-620): > 10 µM (inactive)
- GI50 (SK-MEL-2): > 10 µM (inactive)
- GI50 (TK-10): > 10 µM (inactive)
- GI50 (MDA-MB-435): > 10 µM (inactive)
- GI50 (SF-268): > 10 µM (inactive)
- GI50 (SF-539): 91.8 µM (inactive)
- GI50 (KM12): > 10 µM (inactive)
- GI50 (MDA-MB-231): 48.9 µM (inactive)
- GI50 (SK-MEL-5): > 10 µM (inactive)
- GI50 (HCT-15): > 10 µM
- GI50 (U-251): 74 µM (inactive)
- GI50 (HOP-62): 90.4 µM (inactive)
- GI50 (K562): > 10 µM (inactive)
- GI50 (Hs-578T): 4.25 µM (inactive)
- GI50 (UACC-257): > 10 µM (inactive)
- GI50 (COLO 205): > 10 µM (inactive)
- GI50 (OVCAR-5): > 10 µM (inactive)
- GI50 (MOLT-4): > 10 µM (inactive)
- GI50 (A549): > 10 µM (inactive)
- GI50 (SN12C): > 10 µM (inactive)
- GI50 (LOX IMVI): 91 µM (inactive)
- GI50 (MDA-N): > 10 µM (inactive)
- GI50 (SNB-19): > 10 µM (inactive)
- GI50 (SR): > 10 µM (inactive)
- GI50 (HT-29): > 10 µM (inactive)
- GI50 (UACC-62): > 10 µM (inactive)
- GI50 (HCT-116): 65.6 µM (inactive)
- GI50 (OVCAR-4): > 10 µM (inactive)
- GI50 (RPMI-8226): > 10 µM (inactive)
- GI50 (EKVX): > 10 µM (inactive)
- GI50 (RXF 393): 76.4 µM (inactive)
- GI50 (A498): > 10 µM (inactive)
- GI50 (DU-145): > 10 µM (inactive)
- GI50 (SK-MEL-28): > 10 µM (inactive)
- GI50 (SNB-75): 16.7 µM (inactive)
- GI50 (NCI-H23): > 10 µM (inactive)
- GI50 (CAKI-1): > 10 µM (inactive)
- GI50 (HCC 2998): > 10 µM (inactive)
- GI50 (BT-549): > 10 µM (inactive)
- GI50 (MCF7): > 10 µM (inactive)
- GI50 (M14): 82 µM (inactive)
- GI50 (CCRF-CEM): > 100 µM (inactive)
- GI50 (NCI-H460): > 10 µM (inactive)
- GI50 (PC-3): > 10 µM (inactive)
- GI50 (Malme-3M): 2.22 µM (inactive)
- GI50 (OVCAR-8): 39.9 µM (inactive)
- GI50 (UO-31): > 100 µM (inactive)
- GI50 (T47D): 55.8 µM (inactive)
